Structures are written as SMILES. Values after ≈ are worked out from the molar mass of the structure shown.

In data set [1] the test system is Hepatitis C virus. The data set is described as follows: Antiviral activity against HCV genotype 1b Con1 infected in human HuH7 cells assessed as inhibition of viral replication. The data set is classed as functional, cell-based, Hepacivirus hominis. The settings on record: genotype 1b Con1, Huh-7.
In another data set the target is Genome polyprotein (Hepatitis C virus genotype 1b (isolate BK) (HCV), UniProt P26663). The data set is described as follows: Inhibition of HCV genotype 1b BK NS5B expressed in Escherichia coli BL21 (DE3) after 1 hr.
Data set [2] can be described thus: Inhibition of N-terminally tagged full-length HCV NS5B using biotinylated oligo(rU12), poly(rA) as template-primer assessed as incorporation of [3H]-UTP after 90 mins by Scintillation Proximity Assay. The arrangement: species or system Hepacivirus hominis. On the technique in general: Scintillation proximity formats need no separation of bound from free tracer.

The test system of data set [3] is Hepatitis C virus. The experiment in a line: Antiviral activity against HCV infected in human HuH7 cells assessed as inhibition of viral replication after 72 hrs by RT-PCR analysis. The data set is classed as functional, organism-based, Hepacivirus hominis. The settings on record: Huh-7, 72 h.
Data set [4] is described as follows: Inhibition of N-terminal hexa-histidine tagged full-length HCV genotype 1b NS5B expressed in baculovirus-infected cells using 5'-biotinylated oligo(rU12), poly(rA) as template-primer assessed as incorporation of [3H]-UTP after 90 mins by Scintillation Proximity Assay. Also noted: species or system Hepatitis C virus subtype 1b.
Data set [5] in a line: Solubility of the compound in phosphate buffer at pH 7.2. Format: physicochemical.
The nature of data set [6]: Octanol-buffer distribution co-efficient, log D of the compound at pH 7.4 by shaking-flask method. The data set is classed as physicochemical.
Data set [7] deals with Hepatitis C virus. The experiment in a line: Antiviral activity against HCV assessed as inhibition of viral replication by cell-based assay. The data set is classed as functional, organism-based, Hepacivirus hominis.
A short description of data set [8]: Inhibition of N-terminal hexa-histidine tagged HCV NS5B expressed in baculovirus infected insect cells using 12 nucleotide RNA oligo-uridylate primer and complementary poly-adenylate template assessed as incorporation of UMP-[5,6-3H] into the chain elongated from oligo-U primer by TopCount analysis. Also noted: species or system Hepacivirus hominis.

Sequence of Genome polyprotein (P26663 2420-3010 limits assumed): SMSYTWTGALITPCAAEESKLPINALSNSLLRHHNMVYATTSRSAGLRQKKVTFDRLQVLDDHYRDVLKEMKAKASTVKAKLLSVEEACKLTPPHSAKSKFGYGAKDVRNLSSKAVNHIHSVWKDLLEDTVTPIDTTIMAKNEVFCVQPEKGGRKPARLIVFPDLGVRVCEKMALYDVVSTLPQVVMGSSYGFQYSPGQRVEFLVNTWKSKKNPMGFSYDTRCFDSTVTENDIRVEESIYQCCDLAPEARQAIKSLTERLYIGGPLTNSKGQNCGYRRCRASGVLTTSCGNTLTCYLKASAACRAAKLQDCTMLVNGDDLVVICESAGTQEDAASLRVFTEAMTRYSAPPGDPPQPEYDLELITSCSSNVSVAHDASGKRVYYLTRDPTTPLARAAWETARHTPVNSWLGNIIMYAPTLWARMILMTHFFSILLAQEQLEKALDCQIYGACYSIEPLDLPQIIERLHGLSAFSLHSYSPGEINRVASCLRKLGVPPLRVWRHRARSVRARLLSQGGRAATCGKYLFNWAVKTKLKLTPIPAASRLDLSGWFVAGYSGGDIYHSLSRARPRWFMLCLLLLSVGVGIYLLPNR

In the case of `CC(C)N1CC[C@@H](N2CCn3c(c(C4CCCCC4)c4sc(C(=O)O)cc43)-c3ccccc3C2)C1`, in the data set with Hepatitis C virus [1], the half-maximal effective concentration (EC50) amounted to 0.15 µM. At Genome polyprotein, this compound had an IC50 of 0.019 µM.

Turning to `O=C(N[C@H](Cc1c[nH]c2ccc(O)cc12)c1cscn1)c1ccc2c(c1)nc(-c1ccoc1)n2C1CCCCC1`, in data set [2], the IC50 was determined as 0.3 µM. Moreover, the concentration for a half-maximal effect (EC50) in the data set on Hepatitis C virus [3] is 1.7 µM.

On to `CC(C)(NC(=O)c1ccc2c(c1)nc(-c1ccoc1)n2C1CCCCC1)C(=O)Nc1ccc(/C=C/C(=O)O)cc1`, for which, in [4], the IC50 was 0.04 µM.

As for `O=C(O)COc1ccc2[nH]cc(C[C@H](NC(=O)c3ccc4c(c3)nc(-c3ccoc3)n4C3CCCCC3)C(=O)O)c2c1`, the half-inhibitory concentration (IC50) in data set [2] is 0.027 µM.

On to `C[C@@H](NC(=O)c1ccc2c(c1)nc(-c1ccoc1)n2C1CCCCC1)C(=O)Nc1ccc(/C=C/C(=O)O)cc1`, for which the 50% inhibitory concentration (IC50) in [2] came out at 0.13 µM. For the same compound, the concentration in solution in [5] (solubility) came to 171 µM (≈ 90 µg/mL). Also, the EC50 in the data set on Hepatitis C virus [3] turned out to be 6.9 µM. The compound also showed a logD in [6] of 2.2.

For the compound `O=C(O)c1ccc2c(C3CCCCC3)c(-c3ccccc3)n(CC(=O)N3CCOCC3)c2c1`, the EC50 in the data set on Hepatitis C virus [7] was 0.8 µM.

Take `CC(C)CNCc1c(C(=O)O)sc2c(C3CCCCC3)c(-c3ccccc3)n(CC(=O)N(C)C3CCN(C(C)C)C3)c12` (centres undefined): in the data set with Hepatitis C virus [1], the EC50 was 0.51 µM. The same compound displayed an IC50 against Genome polyprotein of 0.011 µM.

`O=C(O)/C=C/c1ccc(NC(=O)C2(NC(=O)c3ccc4c(c3)nc(-c3ccoc3)n4C3CCCCC3)CCCC2)cc1`: the EC50 in the data set with Hepatitis C virus [7] stood at 0.55 µM.

Consider `O=C(O)c1ccc2c(c1)nc(-c1ccoc1)n2C1CCCCC1`, for which the 50% inhibitory concentration (IC50) in data set [8] was found to be 1.6 µM.

As for `CC(C)N1CCC(N(C)C(=O)Cn2c(-c3ccccc3)c(C3CCCCC3)c3sc(C(=O)O)cc32)C1` (centres undefined), in the data set on Hepatitis C virus [1], the EC50 was found to be 0.13 µM. Also, the 50% inhibitory concentration (IC50) at Genome polyprotein stood at 0.01 µM.

Turning to `CN(C)C(=O)Cn1c(-c2ccccc2)c(C2CCCCC2)c2sc(C(=O)O)cc21`, the IC50 on Genome polyprotein worked out at 0.058 µM.

For `COc1ccc(CCNC(=O)c2ccc3c(c2)nc(-c2ccccn2)n3C2CCCCC2)cc1OC`, in data set [8], the IC50 was determined as 12 µM.

One may read the EC50 as the concentration giving half of the maximal effect. As a reminder, the IC50 is the concentration at which inhibition is half-maximal. For orientation: solubility means how much of the substance goes into solution per volume. Read a low solubility as a poorly soluble substance. What is called logD is the decadic logarithm of the distribution of all forms, ionised or not, between an organic phase and buffer at a given pH. Read a high logD as a more lipophilic compound.

The values above are taken from ChEMBL document CHEMBL3421554, “Discovery of HCV NS5B thumb site I inhibitors: core-refining from benzimidazole to indole scaffold” (Eur J Med Chem, 2015).
